Here are results for five compounds from paper PMC8621334, “Ammonium Formate-Pd/C as a New Reducing System for 1,2,4-Oxadiazoles. Synthesis of Guanidine Derivatives and Reductive Rearrangement to Quinazolin-4-Ones with Potential Anti-Diabetic Activity” (International Journal of Molecular Sciences, 2021).

The assay has as its target T1, Dipeptidyl-Peptidase IV (DPPIV) (Homo sapiens, UniProt P27487).
T1 construct: gene DPP4
In words: fluorometric DPPIV activity assay kit, % inhibition at […]. The format is biochemical.

T1 sequence (P27487 whole entry): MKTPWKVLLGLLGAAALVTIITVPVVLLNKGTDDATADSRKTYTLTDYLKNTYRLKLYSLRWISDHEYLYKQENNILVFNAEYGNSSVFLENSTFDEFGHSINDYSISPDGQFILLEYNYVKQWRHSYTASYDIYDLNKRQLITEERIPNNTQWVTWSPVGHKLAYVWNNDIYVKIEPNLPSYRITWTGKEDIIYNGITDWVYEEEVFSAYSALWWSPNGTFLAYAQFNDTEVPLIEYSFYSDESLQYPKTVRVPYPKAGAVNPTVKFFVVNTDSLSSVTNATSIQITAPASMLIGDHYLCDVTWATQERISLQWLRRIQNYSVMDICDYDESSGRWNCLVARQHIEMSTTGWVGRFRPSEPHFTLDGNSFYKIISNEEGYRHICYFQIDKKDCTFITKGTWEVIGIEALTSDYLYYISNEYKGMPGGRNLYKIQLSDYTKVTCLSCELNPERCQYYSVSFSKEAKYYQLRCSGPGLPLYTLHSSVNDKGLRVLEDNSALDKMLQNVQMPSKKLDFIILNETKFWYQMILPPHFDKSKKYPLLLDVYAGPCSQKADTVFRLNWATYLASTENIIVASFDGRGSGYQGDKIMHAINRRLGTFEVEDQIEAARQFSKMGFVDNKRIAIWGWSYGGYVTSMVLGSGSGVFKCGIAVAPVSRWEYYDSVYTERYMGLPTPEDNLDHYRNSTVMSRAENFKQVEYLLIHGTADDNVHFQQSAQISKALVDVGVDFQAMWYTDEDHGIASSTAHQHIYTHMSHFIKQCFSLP

`COc1ccc(-c2nc(=O)c3ccccc3[nH]2)cc1` [4h, 2-(4-Methoxyphenyl) quinazolin-4(1H)-one] gave an inhibition at 100 µM of 79.1%.

Turning to `N=C(NC(=O)c1ccccc1)NC(=O)c1ccccc1` [2n, N,N′-(Iminomethylene)dibenzamide], the inhibition at 100 µM is 82.7%.

Compound `O=c1nc(-c2ccc(C(F)(F)F)cc2)[nH]c2ccccc12` [4i, 2-(4-(Trifluoromethyl)phenyl)quinazolin-4(1H)-one] had an inhibition at 100 µM of 72.5%.

`CC(=O)NC(=N)NC(=O)c1ccccc1` [2k, N-(N-Acetylcarbamimidoyl)benzamide] returned an inhibition at 100 µM of 79.3%.

In the case of `COc1ccc(-c2nc(=O)c3ccccc3n2C)cc1` [4f, 2-(4-Methoxyphenyl)-1-methylquinazolin-4(1H)-one], the inhibition at 100 µM stood at 82.4%.

As a reminder, the inhibition is the relative decrease from the control value, in per cent.
